In ChEMBL document CHEMBL3886737, “5-chloro-2-difluoromethoxyphenyl pyrazolopyrimidine compounds, compositions and methods of use thereof” (2016):

Columns and labels:
[1] = biological target: Tyrosine-protein kinase JAK2 (Homo sapiens, UniProt O60674); test: (§1) JAK Enzyme Assay: The activity of the isolated recombinant JAK1 and JAK2 kinase domain was measured by monitoring phosphorylation of a peptide derived from JAK3 ([…] fluorescently labeled on the N-terminus with 5-carboxyfluorescein) using the Caliper LabChip® technology (Caliper Life Sciences, Hopkinton, Mass.). […] Reactions were incubated at 22° C. in 384-well polypropylene microtiter plates for 30 minutes and then stopped by addition of 25 μL of an EDTA containing solution (100 mM HEPES buffer (pH 7.2), 0.015% Brij-35, 150 mM EDTA), resulting in a final EDTA concentration of 50 mM. After termination of the kinase reaction, the proportion of phosphorylated product was determined as a fraction of total peptide substrate using the Caliper LabChip® 3000 according to the manufacturer's specifications.
[2] = biological target: Tyrosine-protein kinase JAK1 (Homo sapiens, UniProt P23458); test: as §1
Sequence of Tyrosine-protein kinase JAK1 (P23458 whole entry): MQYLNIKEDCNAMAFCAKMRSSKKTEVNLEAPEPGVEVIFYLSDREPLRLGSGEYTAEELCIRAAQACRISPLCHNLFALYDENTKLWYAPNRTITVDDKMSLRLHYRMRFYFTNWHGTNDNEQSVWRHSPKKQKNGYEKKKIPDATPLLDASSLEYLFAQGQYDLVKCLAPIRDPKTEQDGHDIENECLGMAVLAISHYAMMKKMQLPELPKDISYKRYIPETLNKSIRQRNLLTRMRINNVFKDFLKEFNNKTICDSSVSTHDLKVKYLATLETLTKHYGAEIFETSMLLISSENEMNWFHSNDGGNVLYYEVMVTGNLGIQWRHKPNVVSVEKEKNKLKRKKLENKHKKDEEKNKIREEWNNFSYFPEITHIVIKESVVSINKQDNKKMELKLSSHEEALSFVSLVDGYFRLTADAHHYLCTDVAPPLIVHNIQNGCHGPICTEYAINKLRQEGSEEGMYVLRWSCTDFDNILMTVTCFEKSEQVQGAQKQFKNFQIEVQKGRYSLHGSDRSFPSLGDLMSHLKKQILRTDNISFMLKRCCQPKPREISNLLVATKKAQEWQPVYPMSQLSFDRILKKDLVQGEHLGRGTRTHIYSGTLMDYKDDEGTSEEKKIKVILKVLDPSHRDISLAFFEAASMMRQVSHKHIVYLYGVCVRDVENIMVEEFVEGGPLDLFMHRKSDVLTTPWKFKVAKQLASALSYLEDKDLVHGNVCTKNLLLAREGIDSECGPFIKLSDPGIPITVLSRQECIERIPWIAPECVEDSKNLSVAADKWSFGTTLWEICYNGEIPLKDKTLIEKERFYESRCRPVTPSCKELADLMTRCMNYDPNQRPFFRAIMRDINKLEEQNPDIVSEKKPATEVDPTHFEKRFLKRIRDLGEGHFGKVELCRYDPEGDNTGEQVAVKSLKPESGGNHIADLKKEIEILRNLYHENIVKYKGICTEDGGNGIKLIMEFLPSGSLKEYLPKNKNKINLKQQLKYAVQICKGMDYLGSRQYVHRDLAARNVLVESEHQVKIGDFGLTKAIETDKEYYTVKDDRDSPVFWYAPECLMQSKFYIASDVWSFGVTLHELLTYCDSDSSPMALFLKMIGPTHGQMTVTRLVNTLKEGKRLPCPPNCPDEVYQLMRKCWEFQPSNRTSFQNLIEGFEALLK

Sequence of Tyrosine-protein kinase JAK2 (O60674 whole entry, the tested form may be a part): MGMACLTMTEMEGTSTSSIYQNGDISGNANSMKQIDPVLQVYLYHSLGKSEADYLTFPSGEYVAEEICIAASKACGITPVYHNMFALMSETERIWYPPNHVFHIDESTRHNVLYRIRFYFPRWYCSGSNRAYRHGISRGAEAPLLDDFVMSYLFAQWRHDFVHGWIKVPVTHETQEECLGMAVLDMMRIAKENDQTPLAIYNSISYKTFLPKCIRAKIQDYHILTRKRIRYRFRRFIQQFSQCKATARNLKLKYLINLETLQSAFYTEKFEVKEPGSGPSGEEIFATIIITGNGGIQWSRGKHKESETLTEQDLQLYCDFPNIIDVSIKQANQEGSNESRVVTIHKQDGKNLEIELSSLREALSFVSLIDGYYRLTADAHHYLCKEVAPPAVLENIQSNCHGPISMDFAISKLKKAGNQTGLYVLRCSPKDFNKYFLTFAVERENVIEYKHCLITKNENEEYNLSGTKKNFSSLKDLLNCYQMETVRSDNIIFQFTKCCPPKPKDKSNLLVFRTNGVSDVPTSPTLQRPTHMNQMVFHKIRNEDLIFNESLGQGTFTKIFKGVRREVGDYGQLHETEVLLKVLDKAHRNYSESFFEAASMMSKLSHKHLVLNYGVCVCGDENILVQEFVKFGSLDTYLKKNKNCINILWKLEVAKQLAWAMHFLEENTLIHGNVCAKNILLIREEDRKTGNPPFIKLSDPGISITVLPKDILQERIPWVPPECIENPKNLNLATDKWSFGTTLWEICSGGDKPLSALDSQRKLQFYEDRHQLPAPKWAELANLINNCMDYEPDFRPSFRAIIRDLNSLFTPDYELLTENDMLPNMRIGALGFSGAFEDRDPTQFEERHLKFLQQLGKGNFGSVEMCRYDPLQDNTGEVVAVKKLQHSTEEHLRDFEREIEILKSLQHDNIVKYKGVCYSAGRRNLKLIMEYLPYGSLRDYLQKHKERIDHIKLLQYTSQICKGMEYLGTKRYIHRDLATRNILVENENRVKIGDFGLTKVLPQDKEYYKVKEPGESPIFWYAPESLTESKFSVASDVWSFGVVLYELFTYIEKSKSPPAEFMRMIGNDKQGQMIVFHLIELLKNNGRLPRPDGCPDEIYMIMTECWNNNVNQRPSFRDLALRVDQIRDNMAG

Ki [1] [nM]	Ki [2] [nM]	SMILES
0.86	0.89	CN(C)C1CCN(C(=O)C2CCN(c3nc(-c4cc(Cl)ccc4OC(F)F)c(NC(=O)c4cnn5cccnc45)s3)CC2)CC1
2.9	1.21	C[N+](C)(CCCc1ccccc1)C1CCN(C(=O)Cn2cc(NC(=O)c3cnn4cccnc34)c(-c3cc(Cl)ccc3OC(F)F)n2)CC1
0.64	–	CN(CC1(C#N)CC1)C1CCN(C(=O)Cn2cc(NC(=O)c3cnn4cccnc34)c(-c3cc(Cl)ccc3OC(F)F)n2)CC1

Second part, the compound before the results:

SMILES	Ki [1] [nM]	Ki [2] [nM]
O=C(Nc1cn(CC(=O)N2CCC(N3CC[S+]([O-])CC3)CC2)nc1-c1cc(Cl)ccc1OC(F)F)c1cnn2cccnc12	0.63	0.23
CCOC(=O)CCN1CCN(C(=O)Cn2cc(NC(=O)c3cnn4cccnc34)c(-c3cc(Cl)ccc3OC(F)F)n2)CC1	–	0.49
CN1CCC(n2cc(NC(=O)c3c(N)nn4cccnc34)c(-c3cc(Cl)ccc3OC(F)F)n2)CC1	–	0.76
Nc1nn2cccnc2c1C(=O)Nc1cn(CC(=O)N2CC[C@@H](O)C2)nc1-c1cc(Cl)ccc1OC(F)F	0.13	–
N#C[C@H]1CCCN(C2CCN(C(=O)Cn3cc(NC(=O)c4cnn5cccnc45)c(-c4cc(Cl)ccc4OC(F)F)n3)CC2)C1	0.76	0.3
